In the supplement of paper PMC10307832:

Key:
Experiment in all cases: relative viability (nuclei count vs DMSO), 5 days (fraction); higher = more cells survive
[1] = compound: CC(=O)Nc1cccc(-n2c(=O)n(C3CC3)c(=O)c3c(Nc4ccc(I)cc4F)n(C)c(=O)c(C)c32)c1 [Trametinib] + C[C@]1(O)C[C@@H](c2nc(-c3ccc4ccc(-c5ccccc5)nc4c3)c3c(N)nccn32)C1 [Linsitinib] (partner 1 µM)
Summary of the method: (§1)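 A single step with final 0.05% Triton X-100, 1% formaldehyde and 1 ug/ml Hoechst fixed the cells and stained nuclei 5 days after treatment. Lung cancer cell lines in 1536-well plates had been treated by pin tool the day after seeding with one drug alone or a fixed anchor-drug dose plus five library-drug doses (not always all listed) in √10 steps, and nuclei were counted on 4× images. Relative viability is the ratio of nuclei in treated wells to nuclei in vehicle wells, taken as the median of duplicate plates.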

[2] = compound: CC(=O)Nc1cccc(-n2c(=O)n(C3CC3)c(=O)c3c(Nc4ccc(I)cc4F)n(C)c(=O)c(C)c32)c1 [Trametinib] + Nc1ncn([C@H]2C[C@H](O)[C@@H](CO)O2)c(=O)n1 [Decitabine] (partner 2 µM)
Summary of the method: as §1

[3] = compound: CC(=O)Nc1cccc(-n2c(=O)n(C3CC3)c(=O)c3c(Nc4ccc(I)cc4F)n(C)c(=O)c(C)c32)c1 [Trametinib] + C[C@@H](Oc1cc(-c2cnn(C3CCNCC3)c2)cnc1N)c1c(Cl)ccc(F)c1Cl [Crizotinib] (partner 1 µM)
Summary of the method: as §1

[4] = compound: CC(=O)Nc1cccc(-n2c(=O)n(C3CC3)c(=O)c3c(Nc4ccc(I)cc4F)n(C)c(=O)c(C)c32)c1 [Trametinib] + COc1cc2c(Oc3ccc(NC(=O)C4(C(=O)Nc5ccc(F)cc5)CC4)cc3F)ccnc2cc1OCCCN1CCOCC1 [Foretinib] (partner 0.25 µM)
Summary of the method: as §1

| Cell Line | relative viability ([1]; first compound 0.0025 µM) | relative viability ([1]; first compound 0.007906 µM) | relative viability ([1]; first compound 0.025 µM) | relative viability ([1]; first compound 0.07906 µM) | relative viability ([1]; first compound 0.25 µM) | relative viability ([2]; first compound 0.0025 µM) | relative viability ([2]; first compound 0.007906 µM) | relative viability ([2]; first compound 0.025 µM) | relative viability ([2]; first compound 0.07906 µM) | relative viability ([2]; first compound 0.25 µM) | relative viability ([3]; first compound 0.0025 µM) | relative viability ([3]; first compound 0.007906 µM) | relative viability ([3]; first compound 0.025 µM) | relative viability ([3]; first compound 0.07906 µM) | relative viability ([3]; first compound 0.25 µM) | relative viability ([4]; first compound 0.0025 µM) | relative viability ([4]; first compound 0.007906 µM) | relative viability ([4]; first compound 0.025 µM) | relative viability ([4]; first compound 0.07906 µM) | relative viability ([4]; first compound 0.25 µM) |
| --- | --- | --- | --- | --- | --- | --- | --- | --- | --- | --- | --- | --- | --- | --- | --- | --- | --- | --- | --- | --- |
| HCC-44 | 0.734 | 0.592 | 0.334 | 0.43 | 0.321 | 0.894 | 0.924 | 1.05 | 0.943 | 0.848 | 0.853 | 0.916 | 0.763 | 0.728 | 0.526 | – | – | – | – | – |
| RERF-LC-KJ | 0.862 | 0.792 | 0.751 | 0.791 | 0.793 | 0.683 | 0.68 | 0.609 | 0.695 | 0.475 | 0.794 | 0.819 | 0.778 | 0.664 | 0.763 | 0.948 | 0.851 | 0.699 | 0.827 | 0.778 |
| NCI-H1975 | 0.93 | 0.897 | 0.603 | 0.384 | 0.38 | 0.332 | 0.336 | 0.345 | 0.261 | 0.278 | 0.965 | 0.937 | 0.757 | 0.499 | 0.381 | 0.973 | 0.87 | 0.839 | 0.334 | 0.385 |
| IA-LM | 0.574 | 0.553 | 0.142 | 0.218 | 0.145 | – | – | – | – | – | 0.771 | 0.407 | 0.16 | 0.141 | 0.112 | 1.09 | 0.687 | 0.351 | 0.169 | 0.0888 |
| LCLC-97TM1 | 0.185 | 0.195 | 0.147 | 0.133 | 0.119 | 0.275 | 0.287 | 0.206 | 0.203 | 0.169 | 0.482 | 0.573 | 0.271 | 0.281 | 0.147 | 0.817 | 0.666 | 0.459 | 0.306 | 0.301 |
| NCI-H520 | 0.947 | 1.02 | 1.02 | 0.905 | 0.664 | 0.445 | 0.504 | 0.535 | 0.502 | 0.473 | 0.752 | 0.681 | 0.815 | 0.733 | 0.557 | 0.874 | 0.785 | 0.866 | 0.739 | 0.585 |
| A-427 | 1.11 | 1.14 | 0.631 | 0.825 | 0.432 | 0.522 | 0.585 | 0.541 | 0.525 | 0.418 | 0.924 | 0.757 | 0.659 | 0.658 | 0.502 | 1 | 0.747 | 0.619 | 0.517 | 0.448 |
| ABC-1 | 0.673 | 0.462 | 0.537 | 0.421 | 0.41 | 0.884 | 1.16 | 1.02 | 1.24 | 0.837 | 0.99 | 1.03 | 0.972 | 1.07 | 0.634 | 1.04 | 0.834 | 0.715 | 0.891 | 0.685 |
| NCI-H460 | 0.656 | 0.265 | 0.153 | 0.0822 | 0.0212 | 0.481 | 0.389 | 0.361 | 0.305 | 0.112 | 0.857 | 0.552 | 0.476 | 0.289 | 0.0283 | 0.942 | 0.816 | 0.549 | 0.21 | 0.11 |
| NCI-H1395 | 0.981 | 1.15 | 1.14 | 1.02 | 0.673 | 0.705 | 0.597 | 0.736 | 0.693 | 0.555 | – | – | – | – | – | 0.993 | 0.914 | 0.852 | 0.919 | 0.708 |
| EBC-1 | 1 | 1.15 | 0.456 | 0.407 | 0.189 | – | – | – | – | – | 0.196 | 0.181 | 0.187 | 0.159 | 0.162 | 0.101 | 0.0972 | 0.0957 | 0.0946 | 0.0905 |
| ChaGo-K-1 | – | – | – | – | – | 0.52 | 0.494 | 0.576 | 0.467 | 0.497 | 1.13 | 1.07 | 1.1 | 1.01 | 0.761 | 0.805 | 0.908 | 0.839 | 0.839 | 0.687 |
| NCI-H2228 | 0.582 | 0.764 | 0.646 | 0.472 | 0.396 | – | – | – | – | – | 0.33 | 0.398 | 0.438 | 0.254 | 0.247 | 0.911 | 0.761 | 0.811 | 0.571 | 0.4 |
| NCI-H1563 | 1.22 | 1.08 | 1.1 | 1.12 | 0.808 | – | – | – | – | – | 0.944 | 0.747 | 0.817 | 0.785 | 0.623 | 0.953 | 0.815 | 0.807 | 0.804 | 0.694 |
| NCI-H1703 | 0.692 | 0.821 | 0.674 | 0.72 | 0.352 | – | – | – | – | – | – | 0.495 | 0.66 | 0.727 | 0.423 | 0.371 | 0.315 | 0.357 | 0.368 | 0.323 |
| NCI-H1299 | 0.955 | 0.953 | 0.9 | 0.726 | 0.386 | – | – | – | – | – | 0.951 | 0.926 | 0.869 | 0.848 | 0.521 | 1.07 | 1.2 | 1.01 | 0.794 | 0.481 |
| NCI-H522 | – | – | – | – | – | 0.783 | 0.602 | 0.678 | 0.64 | 0.672 | – | – | – | – | – | – | – | – | – | – |
| NCI-H1648 | – | – | – | – | – | 0.508 | 0.44 | 0.554 | 0.517 | 0.371 | – | – | – | – | – | – | – | – | – | – |
| NCI-H2170 | – | – | – | – | – | 0.491 | 0.451 | – | 0.435 | 0.425 | 1.16 | 1.07 | – | 1.1 | 1.04 | 0.973 | 0.539 | 0.968 | 0.963 | 0.87 |
| NCI-H1793 | 0.806 | 0.523 | 0.309 | 0.302 | 0.296 | 0.458 | 0.4 | 0.447 | 0.334 | 0.228 | – | – | – | – | – | 0.661 | 0.349 | 0.393 | 0.256 | 0.237 |
| NCI-H1623 | – | – | – | – | – | – | – | – | – | – | – | – | – | – | – | 0.782 | 0.591 | 0.532 | 0.437 | 0.727 |
